From patent US20220162610A1, “NOVEL RNA TRANSCRIPT” (PTC Therapeutics, Inc., priority 2020, published 2022)
“Also recorded” adds a separate entry of the source. Where two headings read alike, the source gives them in different places.

What was measured:
Rat toxicology, NOAEL = conditions: male, in vivo
Procedure: The initial dose in the first cohort was ≤ 1/10 of the human equivalent dose (HED) estimated from the NOAEL (no observed adverse effect level) of the (male) rat, which is the most sensitive species, following the FDA guidance on the maximum recommended starting dose (MRSD) and EMA guidelines. The NOAEL of the rat is 6 mg/kg. […] The HED of 0.97 mg/kg was calculated; this scaled in a 70 kg human to 68 mg. Adjusting this dose to 1/10, the dose of the first cohort was 6.8; the actual administered dose will be 5 mg.

HTT protein = assay: Phase 1 study, HTT protein in blood of healthy volunteers (MAD); type: in vivo, human; conditions: after 21 days of treatment (MAD)
Source text: (§1) The multiple ascending (MAD) part of the study was randomized, double-blind, and placebo controlled in healthy male and female subjects. Up to five regimens are planned to be tested in up to 5 cohorts of 8 subjects each (Cohort 2.1 to 2.5). Within each cohort, 6 subjects were to receive Compound 1 and 2 subjects were to receive placebo. Subjects in Cohort 2.1 and 2.2 were to be dosed for 14 days, subjects in Cohort 2.3 to 2.5 were to be dosed for up to 21 days.
In untreated cells, there is a steady state level of mRNA and protein because the amount of mRNA or protein being synthesized matches the amount that is being degraded, so that the mRNA and protein levels are the same over time. The addition of Compound 1 triggers the inclusion of the HTT pseudoexon into the transcript which results in the rapid decay of the HTT mRNA and a reduction of HTT mRNA to […]. […] In this example, ˜50% of newly synthesized mRNA was inhibited. Of the HTT mRNA synthesized prior to treatment, about 50% is degraded after 24 hours. The HTT protein level depends on how much mRNA is produced. Thus, a reduction by 50% would cause a 50% reduction of the HTT protein. […] Changes in HTT protein levels were assessed in MAD cohort over a longer period of time. Accordingly, healthy subjects were treated for 21 days before the amount of HTT mRNA and protein was measured in blood samples taken from each subject. […]

HTT mRNA [1] = assay: PK-PD compartment model and decay-rate modelling of HTT mRNA and protein lowering; design: species or system human
Source text: (§2) HTT mRNA reaches steady state after approximately 5 days. For HTT protein, the half-life was estimated to be 5-7 days and consequently HTT protein steady state levels would only be attained about 6 weeks from the beginning of treatment.
(§3) A target 30% to 50% decrease in mHTT is the range associated with decreased pathology and anticipated therapeutic benefit in patients. In the Phase 1 study, Compound 1-mediated HTT pre-mRNA splicing was dose dependent across all cohorts in both the SAD and MAD portions of the study. Mean decreases in full-length HTT mRNA levels of 40% and 60% were observed after 14 days of treatment with Compound 1 at 15 mg and 30 mg, respectively. On the basis of these clinical data, a PK-PD compartment model was used to simulate percentage of mRNA decreases (and thus the anticipated magnitude of HTT protein lowering) at additional potential clinical doses.

[2] = as above; design: species or system human; conditions: 30 mg daily dose, model based on half-life
Source text: as §2, §3

[3] = Phase 1 study, safety and tolerability in healthy subjects; type: in vivo, human
Procedure: The study was monitored by a Safety Review Committee (SRC). […] Safety and tolerability were assessed by the SRC between each cohort prior to ascending from one dose level to the next higher dose level in Part 1 (single ascending dose [SAD]) and Part 2 (multiple ascending dose [MAD]), and prior to initiating Part 3 (CSF), Part 4 (FE), and Part 5.
Change from baseline to each scheduled time point up to EOS for vital signs; Change from baseline to each scheduled time point up to EOS for ECG parameters; Change from baseline to each scheduled time point up to EOS for clinical laboratory tests; Changes from baseline in C-SSRS scores (Part 2, Part 3, and Part 5 only); Treatment-emergent adverse events (AEs) up to EOS; Treatment-emergent AEs leading to premature discontinuation of study drug; Treatment-emergent serious adverse events (SAEs) up to EOS; and, Abnormalities in physical examination.

HTT mRNA [4] = assay: Phase 1 study, HTT mRNA in whole blood of healthy volunteers; type: in vivo, human; conditions: for Mean decrease in full-length HTT mRNA levels: after 14 days of treatment (MAD)
Procedure: The Phase 1 study was conducted in 5 parts: single ascending doses (SAD)(Part 1), multiple ascending doses (MAD)(Part 2), CSF and blood sampling after 7 days of Compound 1 administration (Part 3), food effect (Part 4), and multiple dosing for up to 28 days (Part 5). Part 1, Part 2, and Part 5 are double blind; Part 3 and Part 4 are open-label. Note that Part 3, Part 4, and Part 5 may be conducted concurrently.
The single ascending dose (SAD) part of the study was randomized, double-blinded, and placebo controlled in healthy male and female subjects.
as §1
The amount of HTT mRNA was then evaluated by RT-PCR 6 hours after administration of Compound 1 on day 14.

[5] = Phase 1 study, pharmacokinetics in plasma and CSF, food effect; type: in vivo, human
Source text: The concentrations of Compound 1 in plasma and CSF were to be assessed in an open-label design in healthy male and female subjects. A single dose of Compound 1 was to be administered daily for 7 days in 1 cohort of 6 subjects (Cohort 3.1). The dose level of Part 3 was to be determined based upon a review of the safety, tolerability, and PK data of Part 1 and Part 2 of the study. While the MAD dose was to be determined further in development, that dose and schedule was to be applied to this part of the study.
Eligibility was to be assessed during a screening period of up to 28 days. Subjects were to check into the clinic 1 day before dosing (Day −1). On the morning of Day 1 to Day 7, Compound 1 was to be orally administered after an overnight fast of at least 10 hours each day. Serial sampling of CSF and sampling of plasma for drug concentrations was to be performed on Day 7. The exact timing of the CSF and blood samples was to be determined based on the results of Part 1 and Part 2. […]
The food effect (FE) part was a parallel, open-label part in healthy male and female subjects in up to 3 cohorts of 6 subjects each. […] The dose levels for this part were to be chosen based upon a review of available safety, tolerability and PK data as determined in Part 1 and Part 2.

## CC1(C)CC(n2nnc3cc(-c4ccc(-n5nccn5)cc4O)nnc32)CC(C)(C)N1 [Compound 1, 2-[3-(2,2,6,6-tetramethylpiperidin-4-yl)-3H-[1,2,3]triazolo[4,5-c]pyridazin-6-yl]-5-(2H-1,2,3-triazol-2-yl)phenol]
Rat toxicology, NOAEL; (male) rat, germ cell exfoliation in epididymis and testes, read-out: NOAEL (no observed adverse effect level)
  NOAEL: 6 mg/kg
Rat toxicology, NOAEL; from rat NOAEL, read-out: human equivalent dose (HED) estimated from the NOAEL
  NOAEL: 0.97 mg/kg
HTT protein
  lowering in the amount of HTT protein: approximately 40%
HTT mRNA [1]; 10 mg QD and 20 mg QD, PK-PD compartment model
  predicted percent full-length HTT mRNA decrease from baseline: 30 to 50%
HTT mRNA [1]; 30 mg daily dose, model based on half-life
  predicted time for HTT mRNA to reach steady state: approximately 5 days
[2]
  predicted time for HTT protein steady state levels: about 6 weeks
[3]; SAD and MAD portions
  dose-limiting toxicities: no events considered to be dose-limiting toxicities
[3]; any dose, SAD and MAD portions
  laboratory abnormalities and ECG findings: no clinically significant laboratory abnormalities or electrocardiogram (ECG) findings
[3]; single doses 5 to 135 mg, multiple doses 15 and 30 mg up to 21 days
  safety and tolerability: well-tolerated with no safety-related findings; also recorded: safe and generally well tolerated
HTT mRNA [4]; 15 mg
  Mean decrease in full-length HTT mRNA levels: 40%
HTT mRNA [4]; 30 mg
  Mean decrease in full-length HTT mRNA levels: 60%
HTT mRNA [4]; MAD cohort
  maintenance of splicing following the last dose: up to 72 hours
HTT mRNA [4]; MAD: 15 mg or 30 mg for 14 days, 6 hours after dose on day 14
  HTT mRNA in whole blood: dose-dependent lowering of HTT mRNA
HTT mRNA [4]; Multiple Ascending Dose Study
  time for HTT mRNA levels to reach steady state: 4 to 5 days
HTT mRNA [4]; SAD cohort, 24 hours after dose, even with higher concentrations
  total amount of HTT mRNA: about 50 % of baseline
HTT mRNA [4]; SAD cohorts
  persistence of HTT splicing effect post cessation of treatment: 72 h
HTT mRNA [4]; SAD: 5, 15, 45, 90 or 135 mg, 24 hours after dose
  HTT mRNA in whole blood: dose-dependent lowering of HTT mRNA
HTT mRNA [4]; lowest dose tested, both SAD and MAD cohorts
  HTT mRNA lowering (target level achieved): 30-50%
[5]; MAD cohort
  drug half-life: long drug half-life
[5]; healthy subjects, 30 mg daily dose
  Compound levels in the CSF compared with plasma: equal to or greater than levels observed in plasma
